Laboratory results reported in ChEMBL document CHEMBL1136913, “Stereoselective synthesis and biological evaluations of novel 3'-deoxy-4'-azaribonucleosides as inhibitors of hepatitis C virus RNA replication” (J Med Chem, 2009).

Tests used:
[1] = Cytotoxicity against human HBI10A cells after 20 hrs by MTS assay; type: cell-based
Hepatitis C virus = experiment: Antiviral activity against HCV infected in human HBI10A cells assessed as inhibition of viral-NS3 expression by ELISA; type: functional, organism-based, Hepacivirus hominis
[2] = Selectivity index, ratio of CC50 for human HBI10A cells to IC50 for HCV; type: functional

Row | IC50 (Hepatitis C virus) | SMILES | CC50 at 20 h [1] | Ratio CC50/IC50 [2]
1 | > 1000 µM | CCOC(=O)N1[C@H](CO)C[C@@H](O)[C@H]1n1cc(F)c(=O)[nH]c1=O | 200 µM | –
2 | 0.00035 µM | CC(C)(C)OC(=O)N1[C@H](CO)C[C@@H](O)[C@@H]1n1cc(F)c(=O)[nH]c1=O | 623 µM | –
3 | 0.018 µM | Cc1cn([C@H]2[C@H](O)C[C@@H](CO)N2C(=O)OC(C)(C)C)c(=O)[nH]c1=O | > 1000 µM | –
4 | 4.8 µM | CCOC(=O)N1[C@H](CO)C[C@@H](O)[C@@H]1n1cc(F)c(=O)[nH]c1=O | > 1000 µM | >=208
5 | 40.6 µM | CC(C)(C)OC(=O)N1[C@H](CO)C[C@@H](O)[C@@H]1n1ccc(=O)[nH]c1=O | > 1000 µM | –
6 | 96 µM | CC(C)(C)OC(=O)N1[C@H](CO)C[C@@H](O)[C@@H]1n1ccc(N)nc1=O | > 1000 µM | –
